# Assay results: patent publication US20260193293A1, “PEPTIDES CAPABLE OF INHIBITING PROTEIN-PROTEIN INTERACTIONS AT GABAB1A SUBUNIT AND USES THEREOF” (UNIVERSITY OF COPENHAGEN, priority 2022, published 2026)
# Read-outs that look alike come from different tables or passages of the source. Residues, ends and D or L forms follow the SMILES beside them.
# Biological target: Sushi domains (SD1/2) protein
# Assay: Fluorescence polarization (FP) competition assay with AJAP-1probe, calculated Ki
# Assay type: binding
# Settings: read-out: Ki (nM) mean ± SEM
# Description: Fluorescence polarization (FP). FP assay was employed to determine the binding affinity of peptides in flat bottom black 384-well plates (Corning Life Science) using a Safire2 plate reader (Tecan). All experiments were conducted in 1×PBS (pH 7.4) containing 1% bovine serum albumin (BSA) at rt. The fluorescence polarization values were measured using excitation/emission wavelengths of 530/580 nm. The instrumental Z-factor was adjusted to obtain the maximum fluorescence intensity and the G-factor was calibrated to give an initial millipolarization value of 20 mP. All FP assays including saturation or competition experiments were performed using 25 nM of TAMRA labeled peptides as probes. For saturation assay, the millipolarization values were measured after mixing of probes with 12 serial 1 to 1 diluted concentrations of Sushi domains (SD1/2) protein. All experiments were performed in triplicate and the data were plotted to the one-site binding model using GraphPad Prism 9 to calculate the Kd of probes. […] The experiments were performed at least in triplicate and the data were fitted to the sigmoidal dose response curve using GraphPad Prism 9 to obtain the IC50 of peptides. The Ki values were calculated according to Nikolovska-Coleska et al^310.
# [1] = Table 4, truncation and elongation scans of APP epitope
# [2] = Table 3, SPOT hit validation and previously reported peptides
# [3] = Table 11, deep mutational scanning validation variants of AJAP-1WT
compound,measurement,setting,value
CC(=O)N[C@@H](C)C(=O)N[C@@H](CCC(=O)O)C(=O)N[C@@H](CCC(=O)O)C(=O)N[C@@H](CC(=O)O)C(=O)N[C@@H](CC(=O)O)C(=O)N[C@@H](CO)C(=O)N[C@@H](CC(=O)O)C(=O)N[C@H](C(=O)N[C@@H](Cc1c[nH]c2ccccc12)C(=O)N[C@@H](Cc1c[nH]c2ccccc12)C(=O)NCC(=O)NCC(=O)N[C@@H](C)C(=O)N[C@@H](CC(=O)O)C(=O)N[C@H](C(=O)N[C@@H](CC(=O)O)C(=O)N[C@@H](Cc1ccc(O)cc1)C(=O)N[C@@H](C)C(=O)N[C@@H](CC(=O)O)C(N)=O)[C@@H](C)O)C(C)C,Ki,[1],237 ± 8 nM
CC[C@H](C)[C@H](NC(=O)[C@H](Cc1ccccc1)NC(=O)[C@H](CCC(=O)O)NC(=O)[C@@H](NC(=O)[C@H](CCC(=O)O)NC(C)=O)[C@@H](C)O)C(=O)N[C@@H](C)C(=O)N[C@@H](Cc1c[nH]c2ccccc12)C(=O)NCC(=O)N1CCC[C@H]1C(=O)N[C@H](C(=O)NCC(=O)N[C@@H](CC(=O)O)C(=O)N[C@@H](CCC(=O)O)C(=O)N[C@@H](CC(=O)O)C(=O)N[C@@H](C)C(N)=O)[C@@H](C)O,Ki,[2],39 ± 1 nM
CC[C@H](C)[C@H](NC(=O)[C@H](Cc1ccccc1)NC(=O)[C@H](CCC(=O)O)NC(=O)[C@@H](NC(=O)[C@H](CCC(=O)O)NC(C)=O)[C@@H](C)O)C(=O)N[C@@H](C)C(=O)N[C@@H](Cc1c[nH]c2ccccc12)C(=O)NCC(=O)N1CCC[C@H]1C(=O)N[C@H](C(=O)NCC(=O)N[C@@H](CC(=O)O)C(=O)N[C@@H](CCC(=O)O)C(=O)N[C@@H](Cc1c[nH]cn1)C(N)=O)[C@@H](C)O,Ki,[3],39 ± 2 nM
CC[C@H](C)[C@H](NC(=O)[C@H](Cc1ccccc1)NC(=O)[C@H](CCC(=O)O)NC(=O)[C@@H](NC(=O)[C@H](CCC(=O)O)NC(C)=O)[C@@H](C)O)C(=O)N[C@@H](C)C(=O)N[C@@H](Cc1c[nH]c2ccccc12)C(=O)NCC(=O)N1CCC[C@H]1C(=O)N[C@H](C(=O)NCC(=O)N[C@@H](CC(=O)O)C(=O)N[C@@H](CCC(=O)O)C(=O)N[C@@H](Cc1ccc(O)cc1)C(N)=O)[C@@H](C)O,Ki,[3],39 ± 1 nM
CC[C@H](C)[C@H](NC(=O)[C@H](Cc1ccccc1)NC(=O)[C@H](CCC(=O)O)NC(=O)[C@@H](NC(=O)[C@H](CCC(=O)O)NC(C)=O)[C@@H](C)O)C(=O)N[C@@H](C)C(=O)N[C@@H](Cc1c[nH]c2ccccc12)C(=O)NCC(=O)N1CCC[C@H]1C(=O)N[C@H](C(=O)NCC(=O)N[C@@H](CC(=O)O)C(=O)N[C@@H](Cc1c[nH]cn1)C(=O)N[C@@H](CC(=O)O)C(N)=O)[C@@H](C)O,Ki,[3],39 ± 2 nM
CC[C@H](C)[C@H](NC(=O)[C@H](Cc1ccccc1)NC(=O)[C@H](CCC(=O)O)NC(=O)[C@@H](NC(=O)[C@H](CCC(=O)O)NC(C)=O)[C@@H](C)O)C(=O)N[C@@H](C)C(=O)N[C@@H](Cc1c[nH]c2ccccc12)C(=O)NCC(=O)N1CCC[C@H]1C(=O)N[C@H](C(=O)NCC(=O)N[C@@H](CC(=O)O)C(=O)N[C@@H](CC(N)=O)C(=O)N[C@@H](CC(=O)O)C(N)=O)[C@@H](C)O,Ki,[3],39 ± 1 nM
CC[C@H](C)[C@H](NC(=O)[C@H](Cc1ccccc1)NC(=O)[C@H](CCC(=O)O)NC(=O)[C@@H](NC(=O)[C@H](CCC(=O)O)NC(C)=O)[C@@H](C)O)C(=O)N[C@@H](C)C(=O)N[C@@H](Cc1c[nH]c2ccccc12)C(=O)NCC(=O)N1CCC[C@H]1C(=O)N[C@H](C(=O)NCC(=O)N[C@@H](CC(=O)O)C(=O)N[C@H](C(=O)N[C@@H](CC(=O)O)C(N)=O)C(C)C)[C@@H](C)O,Ki,[3],39 ± 1 nM
CC[C@H](C)[C@H](NC(=O)[C@H](Cc1ccccc1)NC(=O)[C@H](CCC(=O)O)NC(=O)[C@@H](NC(=O)[C@H](CCC(=O)O)NC(=O)[C@@H](NC(=O)[C@@H](NC(=O)[C@@H]1CCCN1C(=O)[C@H](CCCNC(=N)N)NC(C)=O)[C@@H](C)O)[C@@H](C)O)[C@@H](C)O)C(=O)N[C@@H](C)C(=O)N[C@@H](Cc1c[nH]c2ccccc12)C(=O)NCC(=O)N1CCC[C@H]1C(=O)N[C@H](C(=O)NCC(=O)N[C@@H](CC(=O)O)C(=O)N[C@@H](CCC(=O)O)C(=O)N[C@@H](CC(=O)O)C(N)=O)[C@@H](C)O,Ki,"Table 5, elongation and truncation scan of AJAP-1 binding epitope",58 ± 0.4 nM
CC(=O)N[C@@H](C)C(=O)N[C@@H](CC(=O)O)C(=O)N[C@@H](C)C(=O)N[C@@H](CCC(=O)O)C(=O)N[C@@H](CCC(=O)O)C(=O)N[C@@H](CC(=O)O)C(=O)N[C@@H](CC(=O)O)C(=O)N[C@@H](CO)C(=O)N[C@@H](CC(=O)O)C(=O)N[C@H](C(=O)N[C@@H](Cc1c[nH]c2ccccc12)C(=O)N[C@@H](Cc1c[nH]c2ccccc12)C(=O)NCC(=O)NCC(=O)N[C@@H](C)C(N)=O)C(C)C (Ac-ADAEEDDSDVWWGGA-NH2),Ki,[2],1530 ± 46 nM
CC(=O)N[C@@H](C)C(=O)N[C@@H](CC(=O)O)C(=O)N[C@@H](C)C(=O)N[C@@H](CCC(=O)O)C(=O)N[C@@H](CCC(=O)O)C(=O)N[C@@H](CC(=O)O)C(=O)N[C@@H](CC(=O)O)C(=O)N[C@@H](CO)C(=O)N[C@@H](CC(=O)O)C(=O)N[C@H](C(=O)N[C@@H](Cc1c[nH]c2ccccc12)C(=O)N[C@@H](Cc1c[nH]c2ccccc12)C(=O)NCC(=O)NCC(=O)N[C@@H](C)C(=O)N[C@@H](CC(=O)O)C(=O)N[C@H](C(=O)N[C@@H](CC(=O)O)C(=O)N[C@@H](Cc1ccc(O)cc1)C(=O)N[C@@H](C)C(=O)N[C@@H](CC(=O)O)C(N)=O)[C@@H](C)O)C(C)C (Ac-ADAEEDDSDVWWGGADTDYAD-NH2),Ki,[1],500 ± 16 nM
CC(=O)N[C@@H](C)C(=O)N[C@@H](CC(=O)O)C(=O)N[C@@H](CC(=O)O)C(=O)N[C@@H](CO)C(=O)N[C@@H](CC(=O)O)C(=O)N[C@H](C(=O)N[C@@H](Cc1c[nH]c2ccccc12)C(=O)N[C@@H](Cc1c[nH]c2ccccc12)C(=O)NCC(=O)NCC(=O)N[C@@H](C)C(=O)N[C@@H](CC(=O)O)C(=O)N[C@H](C(=O)N[C@@H](CC(=O)O)C(N)=O)[C@@H](C)O)C(C)C (Ac-ADDSDVWWGGADTD-NH2),Ki,"Table 7, Ala-, D-amino acids and N-methylation scans of APPWT",803 ± 5 nM
CC[C@H](C)[C@H](NC(=O)[C@H](C)NC(C)=O)C(=O)N[C@H](C(=O)N[C@@H](Cc1c[nH]c2ccccc12)C(=O)NCC(=O)N1CCC[C@H]1C(=O)N[C@H](C(=O)N[C@H](C(=O)N[C@@H](CO)C(=O)N[C@@H](CCCNC(=N)N)C(=O)N[C@@H](CCC(=O)O)C(=O)N[C@@H](CC(=O)O)C(=O)NCC(N)=O)C(C)C)[C@@H](C)O)C(C)C (Ac-AIVWGPTVSREDG-NH2),Ki,"Table 6, elongation and truncation scan of PIANP binding epitope",5550 ± 11 nM
CC[C@H](C)[C@H](NC(=O)[C@H](C)NC(C)=O)C(=O)N[C@H](C(=O)N[C@@H](Cc1c[nH]c2ccccc12)C(=O)NCC(=O)N1CCC[C@H]1C(=O)N[C@H](C(=O)N[C@H](C(=O)N[C@@H](CO)C(=O)N[C@@H](CCCNC(=N)N)C(=O)N[C@@H](CCC(=O)O)C(=O)N[C@@H](CC(=O)O)C(=O)NCC(=O)NCC(=O)N[C@@H](CC(=O)O)C(N)=O)C(C)C)[C@@H](C)O)C(C)C (Ac-AIVWGPTVSREDGGD-NH2),Ki,[2],637 ± 45 nM
CC(=O)N[C@@H](CC(=O)O)C(=O)N[C@@H](C)C(=O)N[C@@H](CCC(=O)O)C(=O)N[C@@H](CCC(=O)O)C(=O)N[C@@H](CC(=O)O)C(=O)N[C@@H](CC(=O)O)C(=O)N[C@@H](CO)C(=O)N[C@@H](CC(=O)O)C(=O)N[C@H](C(=O)N[C@@H](Cc1c[nH]c2ccccc12)C(=O)N[C@@H](Cc1c[nH]c2ccccc12)C(=O)NCC(=O)NCC(=O)N[C@@H](C)C(=O)N[C@@H](CC(=O)O)C(=O)N[C@H](C(=O)N[C@@H](CC(=O)O)C(=O)N[C@@H](Cc1ccc(O)cc1)C(=O)N[C@@H](C)C(=O)N[C@@H](CC(=O)O)C(N)=O)[C@@H](C)O)C(C)C (Ac-DAEEDDSDVWWGGADTDYAD-NH2),Ki,[1],247 ± 7 nM
CC(=O)N[C@@H](CC(=O)O)C(=O)N[C@@H](CC(=O)O)C(=O)N[C@@H](CO)C(=O)N[C@@H](CC(=O)O)C(=O)N[C@H](C(=O)N[C@@H](Cc1c[nH]c2ccccc12)C(=O)N[C@@H](Cc1c[nH]c2ccccc12)C(=O)NCC(=O)NCC(N)=O)C(C)C (Ac-DDSDVWWGG-NH2),Ki,[2],2630 ± 97 nM
CC(=O)N[C@@H](CC(=O)O)C(=O)N[C@@H](CC(=O)O)C(=O)N[C@@H](CO)C(=O)N[C@@H](CC(=O)O)C(=O)N[C@H](C(=O)N[C@@H](Cc1c[nH]c2ccccc12)C(=O)N[C@@H](Cc1c[nH]c2ccccc12)C(=O)NCC(=O)NCC(=O)N[C@@H](C)C(=O)N[C@@H](CC(=O)O)C(=O)N[C@H](C(=O)N[C@@H](CC(=O)O)C(=O)N[C@@H](Cc1ccc(O)cc1)C(=O)N[C@@H](C)C(=O)N[C@@H](CC(=O)O)C(N)=O)[C@@H](C)O)C(C)C (Ac-DDSDVWWGGADTDYAD-NH2),Ki,[1],517 ± 16 nM
CC(=O)N[C@@H](CC(=O)O)C(=O)N[C@@H](CC(=O)O)C(=O)N[C@@H](CO)C(=O)N[C@@H](CC(=O)O)C(=O)N[C@H](C(=O)N[C@@H](Cc1c[nH]c2ccccc12)C(=O)N[C@@H](Cc1c[nH]c2ccccc12)C(=O)NCC(=O)NCC(=O)N[C@@H](C)C(=O)N[C@@H](CC(=O)O)C(=O)N[C@H](C(=O)N[C@@H](CC(=O)O)C(=O)N[C@@H](Cc1ccc(O)cc1)C(=O)N[C@@H](C)C(=O)N[C@@H](CC(=O)O)C(=O)NCC(N)=O)[C@@H](C)O)C(C)C (Ac-DDSDVWWGGADTDYADG-NH2),Ki,[2],687 ± 17 nM
